In publication PMC10005056, “Design and Synthesis of New Acyl Urea Analogs as Potential σ1R Ligands” (Molecules, 2023):
pKi: −log10 of the molar value.

Assays:
σ1R = σ1R (Homo sapiens, UniProt Q99720); experiment: In vitro σ1R binding assay (radioligand displacement, NIMH PDSP); conditions: read-out: In Vitro σ1R Affinity (Ki)
From the text: Online Molinspiration and Osiris property explorer were used to calculate/predict drug-like molecular properties for the target compounds. These studies involved retrieving the σ1R crystal structure (5HK1) with embedded ligand (PD144418), preparation (e.g., H2O and ligand removal), and docking the target molecules via the PyRx and AutoDock Vina suite. […] Synthetically, a variety of approaches for obtaining acyl ureas were reviewed and the most feasible conditions were attempted with limited success—our goal was to obtain our compounds using the shortest and most cost-effective approach. […] We therefore slightly modified Stokes’ conditions by preparing the N-(phenoxycabonyl)benzamide intermediate from phenol and benzoyl isocynate. Coupling the intermediate with amines or amides or thioamides via simple nucleophilic displacement afforded our series of N-acyl ureas plus N-acyl thioureas (Table 1) in good yields (>64%). To confirm our pharmacological assumptions regarding these molecules behaving like PD144418, the compounds were sent to the National Institute of Mental Health’s Psychoactive Drug Screening Program and evaluated in radioligand displacement assays to determine their in vitro σ1R affinities or Ki values.
Computational (kcal/mol) versus in vitro (μM, from the National Institute of Mental Health Psychoactive Drug Screening Program or NIMH-PDSP [https://pdsp.unc.edu/pdspweb/ (accessed 28 February 2023)] σ1R binding affinity data are illustrated in Table 4.
Sigma-1 binding affinity experiments (Ki determinations) were conducted at the National Institute of Mental Health’s Psychoactive Drug Screening Program (NIMH PDSP). Sigma-1 receptor binding assay protocol details (radioligand displacement conditions, etc.) are available at https://pdsp.unc.edu/pdspweb/content/PDSP%20Protocols%20II%202013-03-28.pdf (accessed 28 February 2023).

Chain of σ1R (Q99720 whole entry, species assumed): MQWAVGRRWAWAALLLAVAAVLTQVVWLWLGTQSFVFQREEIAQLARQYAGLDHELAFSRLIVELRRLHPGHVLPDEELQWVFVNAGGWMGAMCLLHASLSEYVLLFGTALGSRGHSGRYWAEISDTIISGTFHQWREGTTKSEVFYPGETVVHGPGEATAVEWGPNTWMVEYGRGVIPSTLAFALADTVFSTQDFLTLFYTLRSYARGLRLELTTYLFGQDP

## Cc1cc(NC(=O)NC(=O)c2ccccc2)no1 [Compound 1, N-((5-Methylisoxazol-3-yl)carbamoyl)benzamide]
σ1R
  pKi: < 5.00

## O=C(NC(=O)c1ccccc1)Nc1ccc2[nH]ccc2c1 [Compound 2]
other
  melting point: 220 to 223 °C
σ1R
  pKi: < 5.00

## O=C(NC(=O)c1ccccc1)NC(=S)c1ccccn1 [Compound 3, N-((Pyridine-2-carbonothioyl)carbamoyl)benzamide]
other
  melting point: 180 to 182 °C
σ1R
  pKi: < 5.00

## Cc1cc2cc(NC(=O)NC(=O)c3ccccc3)ccc2[nH]1 [Compound 4, N-((2-Methyl-1H-indol-5-yl)carbamoyl)benzamide]
other
  melting point: 209 to 211 °C
σ1R
  pKi: < 5.00

## O=C(NC(=O)N1CCN(c2ncccn2)CC1)c1ccccc1 [Compound 5, N-Benzoyl-4-(pyrimidin-2-yl)piperazine-1-carboxamide]
other
  melting point: 145 to 147 °C
σ1R
  pKi: < 5.00

## O=C(NC(=O)N1CCN(c2ccncc2)CC1)c1ccccc1 [Compound 6, N-Benzoyl-4-(pyridin-4-yl)piperazine-1-carboxamide]
other
  melting point: 161 to 163 °C
σ1R
  pKi: < 5.00

## O=C(NC(=O)N1CCC(O)CC1)c1ccccc1 [Compound 7]
other
  melting point: 170 to 172 °C
σ1R
  pKi: < 5.00

## Cc1ccc(N2CCN(C(=O)NC(=O)c3ccccc3)CC2)cc1 [Compound 8, N-Benzoyl-4-(p-tolyl)piperazine-1-carboxamide]
other
  melting point: 158 to 160 °C
σ1R
  pKi: < 5.00

## CC(C)(C)OC(=O)N1CCC(NC(=O)NC(=O)c2ccccc2)CC1 [Compound 9, Tert-butyl 4-(3-benzoylureido)piperidine-1-carboxylate]
other
  melting point: 164 to 166 °C
σ1R
  pKi: < 5.00

## O=C(NC(=O)c1ccccc1)Nc1nc2ccccc2o1 [Compound 10, N-(Benzo[d]oxazol-2-ylcarbamoyl)benzamide]
other
  melting point: 180 to 182 °C
σ1R
  pKi: 5.66

## Cc1c(C)c2c(c(C)c1O)CCC(C)(C(=O)NC(=O)NC(=O)c1ccccc1)O2 (stereo not shown) [Compound 11, N-(Benzoylcarbamoyl)-6-hydroxy-2,5,7,8-tetramethylchromane-2-carboxamide]
other
  melting point: 155 to 157 °C
σ1R
  pKi: < 5.00

## COc1cc(C(=S)NC(=O)NC(=O)c2ccccc2)ccc1O [Compound 12, N-((4-Hydroxy-3-methoxyphenylcarbonothioyl)carbamoyl) benzamide]
other
  melting point: 176 to 177 °C
σ1R
  pKi: 5.02

## Cc1cc(C)nc(NC(=O)NC(=O)c2ccccc2)n1 [Compound 13, N-((4,6-Dimethylpyrimidin-2-yl)carbamoyl)benzamide]
other
  melting point: 183 to 185 °C
σ1R
  pKi: < 5.00

## O=C(NC(=O)c1ccccc1)Nc1cnc2ccccc2c1 [Compound 14, N-(Quinolin-3-ylcarbamoyl)benzamide]
other
  melting point: 233 to 236 °C
σ1R
  pKi: < 5.00

## O=C(NC(=O)c1ccccc1)Nc1cc2ccccc2cn1 [Compound 15, N-(Isoquinolin-3-ylcarbamoyl)benzamide]
other
  melting point: 237 to 238 °C
σ1R
  pKi: < 5.00

## O=C(NC(=S)Nc1cc2ccccc2cn1)c1ccccc1 [Compound 16, N-(Isoquinolin-3-ylcarbamothioyl)benzamide]
other
  melting point: 162 to 165 °C
σ1R
  pKi: < 5.00
